Measurements published in patent publication US6495589B2, “Somatostatin antagonists and agonists that act at the SST subtype 2 receptor” (Pfizer Inc., priority 2000, dated 2002).
Ends that are not written are not given here.

Tested on: GH4C1 cells
Assay: Rat pituitary assay for somatostatin receptor antagonists (cAMP content of GH4C1 cells)
Format: cell-based
Settings: 100 nM VIP as stimulus
Text: This assay is designed to quantitate the activity of antagonists of somatostatin that interact directly at the somatostatin receptor. The assay facilitates discovery of agents which increase growth hormone secretion by modulating the inhibitory effects of somatostatin. As aforementioned, somatostatin (also abbreviated SRIF) inhibits GH secretion in the anterior pituitary by binding to a high affinity membrane-bound (and G-protein coupled) receptor which is coupled negatively to adenyl cyclase, thereby reducing intracellular levels of cAMP that would otherwise facilitate, for example, secretion/release of GH from cytoplasmic granules. […] The screen is designed to quantitate the ability of test agents to reverse SRIF's inhibition of the elevated intracellular cAMP levels produced by VIP.
In particular, cyclic AMP (cAMP) content of the pituitary cell line GH4C1 was used to differentiate somatostatin agonists from antagonists. […] This afforded a convenient way to conduct a homogenous immunoradiometric assay of cAMP content in cells lysed in situ, following incubation of the cells with test compound. cAMP content in the GH4C1 cells was determined according to the manufacturer's instructions, by comparison with standards at concentrations from 10 to 1,000 nM cAMP. […]
IC50 values are determined by polynomial regression and analzyed using a MACRO program. […]

## VIP: Vasoactive intestinal peptide (Sigma V3628), endogenous peptide that stimulates GH secretion and activates adenylate cyclase (HSDAVFTDNYTRLRKQMAVKKYLNSILN-NH2; ends and bridges not checked; UniProt P01282 125-152, looked up)
  cAMP content of the GH4C1 cells: increased
